Here are results for 1 molecule from publication PMC3256212, “Mechanism and Function of Drosophila capa GPCR: A Desiccation Stress-Responsive Receptor with Functional Homology to Human NeuromedinU Receptor” (PLoS ONE, 2012).

Peptide text beside a SMILES is read from it.

The target of the assay is T1, capaR (CG14575) (Drosophila melanogaster, UniProt Q8ITC7).
T1 construct: The ORF of capaR was amplified from whole fly cDNA as template; expressed in transfected cells; host or cells: Drosophila S2 cells (pMT/V5-His TOPO, CuSO4 induction)
T1 sequence (Q8ITC7 1-477): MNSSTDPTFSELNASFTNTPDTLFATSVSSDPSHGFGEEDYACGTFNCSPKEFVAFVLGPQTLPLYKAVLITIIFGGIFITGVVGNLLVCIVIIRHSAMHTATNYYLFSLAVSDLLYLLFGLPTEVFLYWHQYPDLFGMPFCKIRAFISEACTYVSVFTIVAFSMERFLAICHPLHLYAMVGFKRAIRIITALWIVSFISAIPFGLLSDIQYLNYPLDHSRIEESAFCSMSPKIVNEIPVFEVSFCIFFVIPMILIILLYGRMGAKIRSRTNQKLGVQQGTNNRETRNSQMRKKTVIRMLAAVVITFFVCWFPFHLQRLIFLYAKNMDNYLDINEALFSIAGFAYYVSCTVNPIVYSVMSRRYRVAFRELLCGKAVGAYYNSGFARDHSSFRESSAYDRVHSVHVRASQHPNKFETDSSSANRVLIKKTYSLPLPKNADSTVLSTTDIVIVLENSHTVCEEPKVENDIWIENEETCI
As to the kind of experiment: [Ca2+]i (aequorin) in capaR-transfected S2 cells. Type of assay: cell-based. To be noted: capaR S2 cells; N = 3 (Fig. 3D); read-out: EC50, [Ca2+]i via capaR. From the text: The ORF of capaR was amplified from whole fly cDNA as template using the primers 5′-[…]-3′ and 5′-[…]-3′ and cloned into pMT/V5-His TOPO vector (Invitrogen). The eYFP ORF was fused in-frame at the C-terminus of the capaR using KpnI and ApaI sites and the tagged construct was cloned into the pMT/V5-His TOPO vector.
The capa peptides Drm-capa-1 (GANMGLYAFPRVamide), Drm-capa-2 (ASGLVAFPRVamide), Drm-PK-1 (TGPSASSGLWFGPRLamide), Drm-PK-2 (SVPFKPRLamide) and hugin gamma (hugg, pQLQSNGEPAYRVRTPRL-amide) were synthesised as C-terminally amidated peptides (Biomatik Corporation, Canada). Peptides were dissolved in distilled ACN/H2O to a concentration of 1 mM and then diluted to the required working concentration in Schneider's medium (Invitrogen Inc.). Human neuromedin U-25 was purchased from Sigma. Rabbit polyclonal antibody to porcine neuromedinU-8 was purchased from Progen biotechnik (Heidelberg, Germany). Rabbit capa precursor peptide used was described in [21] Rabbit anti-peptide antibody was raised against the capaR epitope (CQQGTNNRETRNSQM) by Genosphere Biotechnologies (Paris, France) and purified on a HiTrap NHS-activated HP column (Amersham Pharmacia Bio-tech; Buckinghamshire, UK) according to the manufacturer's instructions. Immunohistochemistry was carried out as described previously. Mouse anti-GFP primary antibody (Zymed) and the antiserum to neuromedinU-8 were all diluted 1∶1000 or, in the case of the pre-immune serum, the affinity-purified capaR antibody and the antiserum to the capa precursor peptide, 1∶500. Incubations in the primary antibodies were performed overnight. A FITC-conjugated affinity-purified goat anti-mouse antibody (Jackson Immunologicals) was used in a dilution of 1∶1,000 for visualization of the mouse monoclonal anti-GFP. A Texas red-conjugated affinity-purified goat anti-rabbit antibody (Jackson Immunologicals) was used at a dilution of 1∶1,000 for visualization of the rabbit capaR antiserum.
Drosophila S2 cells, cultured under standard conditions were transiently transfected with the apoaequorin ORF [21] and a receptor ORF construct, and expression induced using CuSO4. Transfected S2 cells were harvested and incubated with 2.5 µM coelenterazine in the dark at RT for 1–2 h as previously described. 25,000 cells were then placed in 135 µl Schneider's medium supplemented with 10% FCS in a well of a white polystyrene 96-well plate (Berthold Technologies). Bioluminescence recordings were carried out using a Mithras LB940 automated 96-well plate reader (Berthold Technologies) and MikroWin software. 15 µl of each of different peptides were applied to final concentrations as required. At the end of each recording samples were disrupted by the addition of 100 µl lysis solution, and the [Ca^2+] concentrations calculated as previously described. For assays in Ca^2+-free medium, transfected cells were collected and pelleted after incubation with coelenterazine. Cell pellets were re-suspended in Ca^2+-free Schneider's medium (Invitrogen Inc.) without FCS and collected by centrifugation. The washing and pelleting procedure was repeated once more. Experiments were then carried out on 25,000 cells per sample as above. To verify whether the observed calcium signal was linked to phospholipase C (PLC) activation, S2-capaR cells were preincubated with the PLC inhibitor U73122 at concentration of 10^−3 M to 10^−8 M for 10 min. Luminometry experiments were carried out on live, intact tubules expressing a targeted transgene for cytosolic-targeted apoaequorin in either principal or stellate cells as previously described, [22]. For in vivo tubule experiments, flies of the following genotypes were used: c42aeq, capaR-GAL4, UAS-capaR, UAS-capaR RNAi, UAS-NMUR 2 and the resulting progeny from GAL4>UAS crosses.

On to `CC(C)C[C@H](NC(=O)[C@H](Cc1ccccc1)NC(=O)[C@H](Cc1ccc(O)cc1)NC(=O)CNC(=O)[C@H](CCCNC(=N)N)NC(=O)[C@H](CO)NC(=O)[C@H](CCC(N)=O)NC(=O)[C@H](CO)NC(=O)[C@H](C)NC(=O)[C@H](Cc1ccccc1)NC(=O)[C@@H]1CCCN1C(=O)[C@H](CO)NC(=O)[C@H](CCC(N)=O)NC(=O)[C@H](Cc1ccccc1)NC(=O)[C@H](CCC(=O)O)NC(=O)[C@H](CCC(=O)O)NC(=O)[C@H](CC(=O)O)NC(=O)[C@@H](NC(=O)[C@H](CCCNC(=N)N)NC(=O)[C@@H](N)Cc1ccccc1)C(C)C)C(=O)N[C@@H](Cc1ccccc1)C(=O)N[C@@H](CCCNC(=N)N)C(=O)N1CCC[C@H]1C(=O)N[C@@H](CCCNC(=N)N)C(=O)N[C@@H](CC(N)=O)C(N)=O` [NMU-25, reference compound] (H-FRVDEEFQSPFASQSRGYFLFRPRN-NH2), for which the half-maximal effective concentration (EC50) (in general, the concentration giving half of the maximal effect) came out at 21.8 nM.
